The values below come from PubChem BioAssay (NCI).

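Interpolation was linear, between the two tested concentrations surrounding the appropriate level; five concentrations were tested over 48 hours in 96-well plates. GI50: concentration for 50% inhibition of growth. TGI: concentration producing complete growth inhibition.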 Where a SMILES comes first, the peptide text is derived from it. The star is where a group is joined. Boc = CC(C)(C)OC(=O)* Some results are limits rather than exact numbers.

A word on the TGI: it is the concentration at which net growth stops. A high value points to lower sensitivity of the cells. As a reminder, the GI50 is the concentration giving 50% growth inhibition.

Test systems include 786-0 renal; LOX IMVI melanoma; MALME-3M melanoma; RXF 393 renal; SK-MEL-28 melanoma; SK-MEL-5 melanoma; SN12C renal; SW-620 colon; UACC-257 melanoma.
Experiment in all cases: DTP human tumour cell line panel, 48 h

Take `COc1ccc2cc3c4cc5c(cc4cc[n+]3cc2c1OC)OCO5`: the TGI in the assay on 786-0 renal was > 100 µM; in the assay on LOX IMVI melanoma, > 100 µM; in the assay with MALME-3M melanoma, 15.1 µM; with RXF 393 renal it was > 69.6 µM; in the assay with SK-MEL-28 melanoma, 19.4 µM; in the assay on SK-MEL-5 melanoma, 14.1 µM. For the same compound, the TGI in the assay with SN12C renal is 54.2 µM; in the assay with SW-620 colon it was > 62.2 µM; in the assay on UACC-257 melanoma it was 30.4 µM.
`O=C(CNc1ccccc1Cl)Nn1c(-c2ccccc2)nc2ccccc2c1=O`: the TGI was 40.2 µM in the assay on 786-0 renal; 29.5 µM with LOX IMVI melanoma; 36.7 µM with RXF 393 renal; 55.9 µM with SK-MEL-28 melanoma; 21.8 µM in the assay with SK-MEL-5 melanoma; > 100 µM in the assay with SN12C renal. For the same compound, the TGI was 39.7 µM with SW-620 colon and > 100 µM in the assay on UACC-257 melanoma.
With `CSc1cc(Cl)c(C)cc1S(=O)(=O)NC(=O)NNc1ccc(Cl)cc1`, the TGI with 786-0 renal, in the assay on LOX IMVI melanoma, in the assay with MALME-3M melanoma, with RXF 393 renal, with SK-MEL-28 melanoma and with SK-MEL-5 melanoma was > 100 µM each time. Also, the TGI in the assay on SN12C renal and in the assay on SW-620 colon was > 100 µM each time.
For the compound `O=c1cc(N=P(c2ccccc2)(c2ccccc2)c2ccccc2)n(-c2ccccc2)c(=O)n1-c1ccccc1`, the TGI is 25.2 µM with 786-0 renal; 49.5 µM with LOX IMVI melanoma; 33.5 µM in the assay with MALME-3M melanoma; 15.1 µM in the assay with RXF 393 renal; > 100 µM with SK-MEL-28 melanoma; 24.1 µM in the assay with SK-MEL-5 melanoma. Besides, the TGI was 75.3 µM with SN12C renal, > 100 µM in the assay with SW-620 colon and > 100 µM in the assay on UACC-257 melanoma.
`CCOC(=O)c1c(-c2ccc(OC)cc2)c(C#N)c(=S)n(C2OC(COC(C)=O)C(OC(C)=O)C(OC(C)=O)C2OC(C)=O)c1C` (stereo not given): the TGI with 786-0 renal, in the assay with LOX IMVI melanoma, with MALME-3M melanoma, in the assay on RXF 393 renal, with SK-MEL-28 melanoma and in the assay with SK-MEL-5 melanoma was > 100 µM in each case. In addition, the TGI in the assay on SN12C renal, with SW-620 colon and in the assay with UACC-257 melanoma was > 100 µM each time.
As for `CC(C)(C)OC(=O)NCC(=O)NCC(=O)NCC(=O)NCC(=O)O` (Boc-GGGG-OH), the TGI in the assay with 786-0 renal, in the assay on LOX IMVI melanoma, with MALME-3M melanoma, in the assay on RXF 393 renal, with SK-MEL-28 melanoma and in the assay with SK-MEL-5 melanoma was > 100 µM in each case. Further, the TGI in the assay with SN12C renal, in the assay with SW-620 colon and in the assay with UACC-257 melanoma was > 100 µM each time.
In the case of `COc1cc2c(cc1-c1c(C)noc1C)cc(C)c(=O)n2Cc1ccccn1`, the GI50 with LOX IMVI melanoma is 0.884 µM; with MALME-3M melanoma, 1.14 µM; with RXF 393 renal it was 0.498 µM; with SK-MEL-28 melanoma, 3.33 µM; in the assay on SK-MEL-5 melanoma it was 1.99 µM; with SN12C renal, 2.91 µM. Also, the GI50 was 2.59 µM in the assay on SW-620 colon and 2.18 µM in the assay on UACC-257 melanoma. Also, the TGI is 10.8 µM in the assay on LOX IMVI melanoma; 7.45 µM with MALME-3M melanoma; 5 µM in the assay on RXF 393 renal; > 100 µM with SK-MEL-28 melanoma; 10.7 µM in the assay with SK-MEL-5 melanoma; > 100 µM in the assay on SN12C renal. The TGI in the assay on SW-620 colon and in the assay on UACC-257 melanoma was > 100 µM in each case.
Turning to `CN(C)C(=S)S`, the TGI in the assay with 786-0 renal is > 100 µM; with LOX IMVI melanoma, > 100 µM; in the assay with MALME-3M melanoma, > 90.2 µM; in the assay on RXF 393 renal, > 100 µM; in the assay with SK-MEL-28 melanoma, > 100 µM; in the assay with SK-MEL-5 melanoma, > 100 µM. Further, the TGI in the assay with SN12C renal, in the assay with SW-620 colon and with UACC-257 melanoma was > 100 µM each time.
As for `O=C1c2cc3c(cc2CC1Br)CCC3` (stereo not given), the TGI in the assay with 786-0 renal is 3.47 µM; in the assay on LOX IMVI melanoma it was 2 µM; in the assay on MALME-3M melanoma, 2.82 µM; in the assay with RXF 393 renal, 4.04 µM; in the assay on SK-MEL-28 melanoma, 8.56 µM; with SK-MEL-5 melanoma, 3.36 µM. For the same compound, the TGI with SN12C renal turned out to be 3.22 µM; in the assay with SW-620 colon, 3 µM; with UACC-257 melanoma, 5.1 µM.
For the compound `N#C/C(=C\c1cc(Br)c(O)c(Br)c1)c1cccnc1`, the TGI with 786-0 renal is 70.5 µM; with MALME-3M melanoma it was 41.6 µM; with RXF 393 renal, > 100 µM; with SK-MEL-28 melanoma, > 100 µM; in the assay with SN12C renal, > 100 µM; in the assay with SW-620 colon it was > 100 µM. This compound showed a TGI in the assay on UACC-257 melanoma of 73.5 µM.
As for `Clc1ccc(-c2nn3c(-c4ccncc4)nnc3s2)cc1`, the TGI is 61.9 µM with 786-0 renal; > 100 µM with LOX IMVI melanoma; > 100 µM with MALME-3M melanoma; 82.1 µM in the assay on RXF 393 renal; > 100 µM in the assay with SK-MEL-5 melanoma; > 100 µM with SN12C renal. For the same compound, the TGI in the assay with SW-620 colon and with UACC-257 melanoma was > 100 µM in each case.
`C/C=C/C=C/c1nc(C#N)c(N)o1`: the TGI with 786-0 renal, in the assay with LOX IMVI melanoma, in the assay with MALME-3M melanoma, in the assay with RXF 393 renal, in the assay with SK-MEL-28 melanoma and in the assay with SN12C renal was > 100 µM throughout. In addition, the TGI in the assay on SW-620 colon and with UACC-257 melanoma was > 100 µM throughout.
Consider `CCCNC(=O)CCC(C)[C@H]1CCC2C3C(C[C@H](OC(C)=O)[C@@]21C)[C@@]1(C)CCC2(C[C@H]1C[C@H]3OC(C)=O)OOC1(CCC(C)CC1)OO2` (stereo not given in full), for which the TGI was 33.4 µM with 786-0 renal; 40.3 µM with MALME-3M melanoma; > 100 µM with RXF 393 renal; > 100 µM in the assay on SK-MEL-28 melanoma; 28.6 µM with SK-MEL-5 melanoma; > 100 µM in the assay on SN12C renal. In the assay on UACC-257 melanoma, the TGI was found to be 90.9 µM.
In the case of `CCOC(=O)NC(=S)NN(C)C1=NCC(C)(C)S1`, the total growth inhibition concentration (TGI) in the assay with 786-0 renal, in the assay with LOX IMVI melanoma, with RXF 393 renal, in the assay with SK-MEL-28 melanoma, with SK-MEL-5 melanoma and in the assay with SN12C renal was > 100 µM in each case. For the same compound, the TGI in the assay on SW-620 colon and with UACC-257 melanoma was > 100 µM in each case.
Regarding `Cc1ccccc1C(O)(c1nccn1C)c1nccn1C`, the TGI with 786-0 renal, with MALME-3M melanoma, in the assay with RXF 393 renal, with SK-MEL-28 melanoma, in the assay with SK-MEL-5 melanoma and with SN12C renal was > 100 µM each time. Also, the TGI in the assay with SW-620 colon and in the assay on UACC-257 melanoma was > 100 µM in each case.
As to `Cc1cc2[nH]c3[nH]c(=O)[nH]c(=O)c3c2cc1C`, the TGI in the assay with 786-0 renal, in the assay on LOX IMVI melanoma, with MALME-3M melanoma, in the assay on RXF 393 renal, in the assay with SK-MEL-5 melanoma and with SN12C renal was > 100 µM in each case. The TGI with SW-620 colon and with UACC-257 melanoma was > 100 µM in each case.
Regarding `CN(C)Cc1cc(C(=O)/C=C/c2ccc(O)cc2)cc(CN(C)C)c1O`, the TGI in the assay on 786-0 renal is > 100 µM; in the assay on LOX IMVI melanoma it was > 100 µM; in the assay on RXF 393 renal, > 100 µM; in the assay on SK-MEL-28 melanoma, > 100 µM; with SK-MEL-5 melanoma, 38.5 µM; in the assay with SN12C renal, 60.1 µM. Moreover, the TGI with SW-620 colon and in the assay on UACC-257 melanoma was > 100 µM throughout.
Regarding `COC(=O)c1c2c(cc3c1CC1(C3)Cc3cc4c(c(C(=O)OC)c3C1)CCCC4)CCCC2`, the TGI in the assay with 786-0 renal, with LOX IMVI melanoma, with MALME-3M melanoma, in the assay on RXF 393 renal, with SK-MEL-5 melanoma and with SN12C renal was > 100 µM each time. The TGI in the assay on UACC-257 melanoma was > 100 µM.
As to `c1ccc2c(c1)NC(C1OC3CCCN3C1C1Nc3ccccc3S1)S2` (stereo not given), the TGI in the assay on 786-0 renal was > 100 µM; in the assay on MALME-3M melanoma it was > 100 µM; in the assay on RXF 393 renal, 97 µM; in the assay with SK-MEL-28 melanoma it was > 100 µM; in the assay with SK-MEL-5 melanoma, > 100 µM; in the assay with SN12C renal it was > 100 µM. For the same compound, the TGI in the assay on SW-620 colon and in the assay on UACC-257 melanoma was > 100 µM each time.
For the compound `CCOC(=N)n1c(=O)n(C2=NCCN2)c2ccccc21`, the TGI in the assay with 786-0 renal, in the assay with LOX IMVI melanoma, in the assay on MALME-3M melanoma, in the assay with RXF 393 renal, in the assay on SK-MEL-28 melanoma and with SN12C renal was > 100 µM in each case. For the same compound, the TGI in the assay with SW-620 colon and with UACC-257 melanoma was > 100 µM throughout.
For the compound `COc1ccc(C2(CC(C)O)SCCCS2)cc1` (stereo not given), the TGI in the assay on 786-0 renal, in the assay on MALME-3M melanoma, with RXF 393 renal, in the assay with SK-MEL-28 melanoma, in the assay with SK-MEL-5 melanoma and in the assay with SN12C renal was > 100 µM in each case. Further, the TGI in the assay on SW-620 colon and in the assay on UACC-257 melanoma was > 100 µM in each case.
`O=C(NCCN1CCOCC1)c1ccc2cc(C(=O)N3CC(CCl)c4ccc([N+](=O)[O-])cc43)[nH]c2c1` (stereo not given): the TGI in the assay on 786-0 renal is 38.4 µM; with LOX IMVI melanoma, > 100 µM; in the assay with RXF 393 renal it was 20.4 µM; with SK-MEL-28 melanoma, > 100 µM; in the assay with SK-MEL-5 melanoma, 4.73 µM; in the assay on SN12C renal, 52.7 µM. Also, the TGI in the assay on SW-620 colon was > 100 µM; with UACC-257 melanoma, 86.8 µM.
Regarding `Cc1csc(-c2cn(C)c3c2C(=O)C(N)=CC3=O)n1`, the TGI in the assay on 786-0 renal was > 100 µM; in the assay with LOX IMVI melanoma, > 100 µM; with RXF 393 renal it was > 100 µM; in the assay on SK-MEL-28 melanoma, > 100 µM; with SK-MEL-5 melanoma, 3.27 µM; with SN12C renal it was > 100 µM. For the same compound, the TGI with SW-620 colon is > 100 µM; with UACC-257 melanoma, 32.6 µM.
